According to EP2616456B1, “NUCLEAR EXPORT INHIBITORS” (Universitätsmedizin der Johannes Gutenberg-Universität Mainz, priority 2010, dated 2012):
Entries after “also recorded” stand apart in the source; their conditions may differ.

Experiments:
RevNES-biosensor = RevNES-biosensor translocation (NES-mediated nuclear export) in living HeLa cells, fluorescence microscopy; type: cell-based; details: for Cellular localization of green fluorescent RevNES-biosensor: HeLa
Description: The activity of compounds C3, C5 and C24 to inhibit NES-mediated nuclear export in living cells was analyzed as described in Fetz et al., 2009 using living HeLa (cervix carcinoma), FaDu (head and neck cancer), MDA-MB231 (mammacarcinoma) and SW480 cells (colon cancer) which transiently expressed the RevNES-biosensor. The RevNES-biosensor is a fusion protein composed of (from N to C terminus) the SV40 large T-antigen nuclear localization signal (NLS), glutathion-S-transferase (GST), green fluorescent protein (GFP) and the nuclear export signal (NES) of the HIV-1 (human immunodeficiency virus) Rev protein (RevNES).
The cells of the control were treated with a corresponding amount of DMSO only. The cellular localization of RevNES-biosensor was monitored by fluorescence microscopy. […] Maximum of cellular accumulation was observed after 1h (C24), after 2h (C3) and after 5h (C5), respectively. […] Thus, the inhibitory activity of C3 and C24 (reversible) but not of C5 (irreversible) was reversed after 24h. Table 1: Cellular localization of green fluorescent RevNES-biosensor
Table 3: Cellular localization of green fluorescent RevNES-biosensor
(§1) IC50 value corresponds to compound concentration reducing HeLa cell viability by 50%. Topt is the time point post treatment when maximum nuclear export inhibition was observed by fluorescence microscopy. Table 4: Functional characteristics of nuclear export inhibitors

Survivin = test: Nuclear export of Survivin-GFP fusion transiently expressed in HeLa cells; type: cell-based; details: transient expression, 25µM
Description: The activity of compounds to inhibit the export of the oncologically relevant protein Survivin as well as of the HIV-1 Rev protein was analyzed.
Nuclear export of Survivin is crucial for its tumor promoting cytoprotective activity (Engels et al., 2007; Knauer et al., 2007a; Knauer et al., 2007b).

HIV-1 Rev protein = test: Nuclear export of HIV-1 Rev-GFP in actinomycin D treated HeLa cells; type: cell-based; details: 25µM
From the text: The HIV-1 Rev protein transports unspliced and incompletely spliced viral RNAs from the nucleus into the cytoplasm (Stauber et al., 1995). As such, Rev's export function is crucial for viral replication and AIDS development (Pavlakis and Stauber, 1998; Stauber et al., 1995).

HeLa cells = test: Cell viability (CellTiter-Glo) and cell death, HeLa; type: cell-based; details: Homo sapiens; compound concentration reducing HeLa cell viability by 50%
Description: To test the anti-cancer activity of the compounds, several cancer cell lines, currently used as models for different epithelial cancers and leukemias, were treated with the indicated inhibitors. […] Every 24h, the cell culture medium was replaced by fresh compound-containing medium. 72h post treatment, cell were analyzed by adding 100µl CellTiter-Glo® assay reagent (Promega). Luminescence was measured with a LuminoskanAscent device (ThermoScientific). Cells treated with a corresponding amount of DMSO only were use as a control. The luminescence (equals cell viability) of said control was set to 100%.
as §1
It was assessed whether the export inhibitors also affect the viability of non-malignant human cells, precluding their potential (pre)clinical use. 10^3 freshly isolated non-malignant primary human fibroblasts (HTF-8) or HeLa cells/well were seeded and 24h later treated with the indicated compounds (final concentration: 100µM). Every 24h cell culture medium was replaced by freshly prepared compound-containing medium. 72h post treatment the cells were analyzed by adding 100µl CellTiter-Glo® assay reagent, and luminescence measured with a LuminoskanAscent (ThermoScientific). Cells treated with DMSO only were used as a control. The fluorescence measured (equals cell viability) with said control was set to 100%.

HTF-8 = test: Viability (CellTiter-Glo) and cell death of non-malignant primary fibroblasts HTF-8; type: cell-based; details: HTF-8 non-malignant primary human fibroblasts, 100µM, 72h
Description: It was assessed whether the export inhibitors also affect the viability of non-malignant human cells, precluding their potential (pre)clinical use. […] Every 24h cell culture medium was replaced by freshly prepared compound-containing medium. 72h post treatment the cells were analyzed by adding 100µl CellTiter-Glo® assay reagent, and luminescence measured with a LuminoskanAscent (ThermoScientific). Cells treated with DMSO only were used as a control. The fluorescence measured (equals cell viability) with said control was set to 100%.

human CRM1 (Crm1-HA) = human CRM1 (Crm1-HA) (Homo sapiens, UniProt O14980); test: In vitro pull-down of Crm1-HA with GST-SurvivinNES-GFP beads; type: binding; details: preincubation 400nM, 30min at 4°C
Chain of human CRM1 (Crm1-HA) (O14980 whole entry): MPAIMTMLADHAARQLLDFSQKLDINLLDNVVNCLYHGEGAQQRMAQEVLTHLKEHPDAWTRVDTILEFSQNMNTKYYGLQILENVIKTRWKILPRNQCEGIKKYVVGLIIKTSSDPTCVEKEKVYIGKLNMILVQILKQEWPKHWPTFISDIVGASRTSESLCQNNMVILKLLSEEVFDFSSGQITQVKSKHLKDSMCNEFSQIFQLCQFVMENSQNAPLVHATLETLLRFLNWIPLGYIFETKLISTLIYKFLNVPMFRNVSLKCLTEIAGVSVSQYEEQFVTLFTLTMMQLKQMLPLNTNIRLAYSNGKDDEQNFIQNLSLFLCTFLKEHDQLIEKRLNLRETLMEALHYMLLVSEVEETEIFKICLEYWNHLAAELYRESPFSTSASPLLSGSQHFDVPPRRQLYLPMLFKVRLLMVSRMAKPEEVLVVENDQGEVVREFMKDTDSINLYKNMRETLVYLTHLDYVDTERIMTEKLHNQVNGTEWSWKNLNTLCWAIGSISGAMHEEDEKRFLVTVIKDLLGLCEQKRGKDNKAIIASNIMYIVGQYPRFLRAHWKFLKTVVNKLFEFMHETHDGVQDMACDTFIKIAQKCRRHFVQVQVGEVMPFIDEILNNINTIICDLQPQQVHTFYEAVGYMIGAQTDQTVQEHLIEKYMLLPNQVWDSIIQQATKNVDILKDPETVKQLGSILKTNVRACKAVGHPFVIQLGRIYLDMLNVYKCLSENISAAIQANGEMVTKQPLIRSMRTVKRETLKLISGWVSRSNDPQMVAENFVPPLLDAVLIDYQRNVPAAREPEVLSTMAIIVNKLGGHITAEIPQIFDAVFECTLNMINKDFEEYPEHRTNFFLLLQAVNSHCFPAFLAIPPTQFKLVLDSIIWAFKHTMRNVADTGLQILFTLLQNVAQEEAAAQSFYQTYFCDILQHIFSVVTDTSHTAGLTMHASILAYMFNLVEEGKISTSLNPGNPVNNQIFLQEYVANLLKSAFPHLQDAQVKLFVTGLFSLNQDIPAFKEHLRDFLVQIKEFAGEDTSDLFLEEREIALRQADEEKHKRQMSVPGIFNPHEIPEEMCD
Description: The binding of LMB and of compounds C3 and C5 to CRM1 was examined by in vitro pull-down assays as described by Stauber et al., 2006. Briefly, in vitro coupled transcription/translation was performed using the TNT reticulocyte lysate system (Promega, Madison, WI, USA) supplemented with methionine (Promega, Madison, WI, USA) and plasmid pCrm1_HA (1µg), encoding a hemagglutinin epitope-tagged version of human CRM1 (Crm1-HA), as the template. Equal amounts of the Crm1-HA TNT reaction were preincubated with either DMSO (negative control; 0.1%), LMB (400nM, final concentration), C3 (1 mM; final concentration) or C5 (1mM; final concentration) in binding-buffer containing 5mM MgCl2 (AppliChem, Darmstadt, Germany), 2mM GTP (PEQLAB, Erlangen, Germany), 50mM Hepes pH 7.9 (AppliChem, Darmstadt, Germany), 200mM KCI (AppliChem, Darmstadt, Germany), 0.4% Tween 20 (AppliChem, Darmstadt, Germany), supplemented with complete protease inhibitor cocktail (Roche, Mannheim, Germany) for 30min at 4°C. Subsequently, GST-Sepharose beads loaded with 25µg recombinant GST-SurvivinNES-GFP and 5µg GST-RanQ96L were added to each drug-treated TNT reaction. Recombinant GST-SurvivinNES-GFP and GST-RanQ96L were purified from bacteria as described by Stauber et al., 2006. Pull-down was performed for 4h at 4°C in a rotating wheel. Samples were then centrifuged (3500rpm, 1min, 4°C) to recover the GST-SurvivinNES-GFP beads with bound Crm1-HA. Beads were washed three times with binding-buffer (500µl each washing step, 3500rpm, 1min, 4°C). Finally, bound proteins were eluted by adding 25µl 2xSDS-sample buffer (250mM Tris-HCl pH 6.8; 2% w/v SDS, 20% glycerol, 2% β-mercaptoethanol, 0.002% w/v bromophenol blue) and incubating at 95°C for 2min. Samples were separated by SDS-gelelectrophoresis and analyzed by immunoblot analysis as described by Stauber et al., 2006. Crm1-HA was detected with HA specific antibodies (MMS-101R, Covance, New Jersey, USA). GFP served as the loading control and was visualized with GFP specific antibodies (sc-8334, Santa Cruz Biotechnology, Heidelberg, Germany).

Row | SMILES | Cellular localization of green fluorescent RevNES-biosensor (RevNES-biosensor; 25µM, T = 24h) | Cellular localization of green fluorescent RevNES-biosensor (RevNES-biosensor; 25µM, at Topt) | Topt at 25µM (RevNES-biosensor; Table 4, 25µM, fluorescence microscopy) | Mode of Inhibition (RevNES-biosensor; reversal of export inhibition after 24h, C5: 5-12h observation) | Localization of Survivin-GFP fusion (nuclear export of Survivin) (Survivin) | Localization of HIV-1 Rev-GFP (nuclear export of HIV-1 Rev protein) (HIV-1 Rev protein) | IC50 (HeLa cells) | viability compared to the control (HTF-8) | interaction of Crm1-HA with the export substrate GST-SurvivinNES-GFP (human CRM1 (Crm1-HA))
1 | NC(=O)c1c(NC(NC(=O)c2cccc(F)c2)(C(F)(F)F)C(F)(F)F)sc2c1CCC2 [Compound C24, 2-[[1,1,1,3,3,3-hexafluoro-2-[(3-fluorobenzoyl)amino]propan-2-yl]amino]-5,6-dihydro-4H-cyclopenta[b]thiophene-3-carboxamide] | predominantly localized in the cytoplasm | nuclear accumulation; also recorded: nucleus | ∼1h | reversible | accumulated in the nucleus | restored the nuclear accumulation | 31 µM | do not affect viability | 
2 | CCC(=C/[C@H](C)C/C=C/C(C)=C/[C@@H](C)C(=O)[C@@H](C)[C@H](O)[C@@H](C)C/C(C)=C/C(=O)O)/C=C/[C@@H]1OC(=O)C=C[C@@H]1C [LMB, leptomycin B, reference compound] |  |  |  |  |  |  |  |  | prevented the interaction
